Test results: US20190275179A1, “SONOPHORE-LABELED PROBES AND RELATED IN VIVO IMAGING TECHNIQUES” (MEMORIAL SLOAN KETTERING CANCER CENTER, priority 2016, published 2019)

Tests used:
[1] = In vivo optoacoustic imaging (RSOM) of BHQ-1 in mouse footpad; design: species or system mice
Method: For in vivo experiments, 6-8 week old female Hsd: Athymic Nude-Foxn1^nu mice were purchased from Envigo (IN, US). All animal experiments were performed in accordance with institutional guidelines and approved by the IACUC of MSK, and followed NIH guidelines for animal welfare.
For imaging, a high-resolution raster-scan optoacoustic mesoscopy (RSOM) prototype scanner was used in an epi-illumination mode. The scanner illuminates the tissue with a fast monochromatic nanosecond laser (1 ns, 2 kHz, 1 mJ pulse energy at 532 nm). The laser light was coupled to the sample using a three arm fiber bundle which is combined with the ultrasound detector into a single scan unit. The optoacoustic signals were measured with a 50 MHz spherically focused detector and a bandwidth of 5-80 MHz. Furthermore, the signals were amplified with a 63 dB low noise amplifier and digitized using a fast 12 bit data acquisition card. The scan was performed in a continuous-discrete manner. The usual scan took 1.30 minutes for a field of view of 8×8 mm^2 and the maximum depth was about 2 mm, limited by the penetration depth of 532 nm photons in tissue.
The raw signals were transformed to the computer on which they were later reconstructed using beam forming. Before reconstruction, the signals were divided into two sub-bands: low frequencies 5-25 MHz and high frequencies 25-80 MHz. These sub-bands were later on separately reconstructed an overlayed using different colors (red=low frequencies, green=high frequencies). For the reconstruction a speed of sound of 1540 m/s has been used and the reconstruction has been performed with voxel sizes of 20×20×5 μm^3. Finally, the Hilbert transform was applied to the reconstructed volume to remove the negative values and the images were further processed using a Wiener and a Median filter to improve the signal to noise ratio. For visualization we took the maximum intensity of the three-dimensional volume.
All mice were anesthetized using 2% isoflurane. For imaging the quencher dye in vivo, 10 nmol BHQ-1 solution were injected subcutaneously into the footpad of 3 mice. The mouse was then placed in a pre-warmed water bath on a mouse bed keeping the head of the animal above water level. The foot of the mouse was stabilized under water with tape to keep it in a static position for the measurement procedure. The feet were measured before and directly after injection using RSOM as described under 2.3. Quantitative analysis was done in ImageJ by placing a ROI over the injection site of each foot as well as over the background blood vessels in the foot pad.

[2] = Absorbance spectra of BHQ-1 and BHQ-1-cRGD by spectrophotometry; format: physicochemical; conditions: measured in ethanol, 250 nm to 750 nm
Method: To a stirring solution of cyclic RGD (cyclo(Arg-Gly-Asp-D-Phe-Lys) (cRGD), 1.0 mg, 1.66 μmol, 1.0 eq., Peptides International, KY, US) in anhydrous DMF (200 μL) a solution of BHQ-1 N-hydroxysuccinimide (NHS) ester (1.2 mg, 2.0 μmol, 1.2 eq., Biosearch Technologies, CA, US) in anhydrous DMF (200 μL) and […] (1.2 μL, 8.0 μmol, 4.8 eq.) was added sequentially. The resulting reaction solution was stirred for 4 h at room temperature. Purification by high performance liquid chromatography (HPLC) (C18, 10% to 100% of acetonitrile over 10 min, then 100% of acetonitrile until 18 min, 1.0 mL/min) yielded BHQ-1-cRGD (1.5 mg, 1.4 μmol, 82%) as a black solid. The purity of BHQ-1-cRGD was analyzed by performing analytical HPLC (rt=11.0 min, >97%). The identity of the product ([…], MW: 1090.21 g/mol) was verified by electrospray ionization mass spectrometry (ESI(+): m/z (%) 546.70 (100) [M+2H]^2+, 1090.40 (25) [M+H]^+). The absorbance spectra of BHQ-1 and BHQ-1-cRGD were measured in ethanol using spectrophotometry from 250 nm to 750 nm.

[3] = 10 nmol subcutaneous into footpad

absorption spectrum peak [2]: 515 nm
Compound: COc1cc(/N=N/c2ccc(C)cc2[N+](=O)[O-])c(C)cc1/N=N/c1ccc(N)cc1 [BHQ-1]
optoacoustic signal at the injection site, high frequencies (25-80 MHz) [1, 3]: 55.6±5.7 AU
optoacoustic signal at the injection site, low frequencies (5-25 MHz) [1, 3]: 67.2±3.4 AU
optoacoustic signal at the injection site, overlay image of all detected frequencies ([1]; 10 nmol subcutaneous into footpad, directly after injection): 121.6±14.2 AU
optoacoustic signal at injection site relative to surrounding footpad vessels ([1]; overlay of all frequencies, 10 nmol s.c.): ~5 times
